Test results: US9144239B2, “Macrocyclic picolinamides as fungicides” (DOW AGROSCIENCES LLC, priority 2012, dated 2015)

What follows are compounds tested on Rhyncosporium secalis (assay: Fungicidal activity: barley scald (RHYNSE)). Conditions: 100 ppm, 1 Day Protectant.
Format: in vivo
Description: Technical grades of materials were dissolved in acetone, which were then mixed with nine volumes of water containing 110 ppm Triton X-100. The fungicide solutions were applied onto wheat seedlings using an automated booth sprayer to run-off. All sprayed plants were allowed to air dry prior to further handling. Wheat plants (variety Yuma) were grown from seed in a greenhouse in 50% mineral soil/50% soil-less Metro mix until the first leaf was fully emerged, with 7-10 seedlings per pot. These plants were inoculated with an aqueous spore suspension of Septoria tritici either prior to or after fungicide treatments. After inoculation the plants were kept in 100% relative humidity (one day in a dark dew chamber followed by two to three days in a lighted dew chamber at 20° C.) to permit spores to germinate and infect the leaf. The plants were then transferred to a greenhouse set at 20° C. for disease to develop. When disease symptoms were fully expressed on the 1st leaves of untreated plants, infection levels were assessed on a scale of 0 to 100 percent disease severity. Percent disease control was calculated using the ratio of disease severity on treated plants relative to untreated plants. Evaluation of Fungicidal Activity: Barley Scald (Rhyncosporium secalis; Bayer Code […]) Barley seedlings (variety Harrington) were propagated in soil-less Metro mix, with each pot having 8 to 12 plants, and used in the test when first leaf was fully emerged. Test plants were inoculated by an aqueous spore suspension of Rhyncosporium secalis 24 hr after fungicide treatments. After inoculation the plants were kept in a dew room at 20° C. with 100% relative humidity for 48 hr. The plants were then transferred to a greenhouse set at 20° C. for disease to develop. Fungicide formulation, application and disease assessment on the sprayed leaves followed the procedures as described in the Example A.

SMILES	Disease Control RHYNSE 1 DP
COc1ccnc(C(=O)N[C@H]2COC[C@H](Oc3ccc(F)cc3)[C@@H](Oc3ccc(F)cc3)[C@H](C)OC2=O)c1OC(C)=O [Compound 229, 2-(((3S,7S,8S,9S)-7,8-bis(4-fluorophenoxy)-9-methyl-2-oxo-1,5-dioxonan-3-yl)carbamoyl)-4-methoxypyridin-3-yl acetate]	A (80-100)
COc1ccnc(C(=O)N[C@H]2COC[C@H](Oc3ccc(F)cc3)[C@@H](Oc3ccc(F)cc3)[C@H](C)OC2=O)c1OCOC(C)=O [Compound 231]	A (80-100)
COc1ccnc(C(=O)N[C@H]2COC[C@H](Oc3ccccc3)[C@@H](Oc3ccccc3)[C@H](C)OC2=O)c1OCOC(C)=O [Compound 84]	A (80-100)
CCCO[C@H]1COC[C@H](NC(=O)c2nccc(OC)c2OCOC(C)=O)C(=O)O[C@@H](C)[C@@H]1Oc1ccccc1 [Compound 221]	A (80-100)
CCCO[C@H]1[C@H](C)OC(=O)[C@@H](NC(=O)c2nccc(OC)c2OCOC(C)=O)COC[C@@H]1Oc1ccccc1 [Compound 222]	A (80-100)
